Experimental data taken from patent US11504383B2, “Crystalline forms of a Ryanodine receptor modulator and uses thereof” (ARMGO Pharma, Inc., priority 2021, dated 2022).
Entries after “also recorded” stand apart in the source; their conditions may differ.

Columns and labels:
Format in all cases: physicochemical
[1] = Competitive slurry experiments mixing Form 1 and Form 2 in various solvents
Protocol: Competitive slurry experiments were performed at 15° C. (Table 5) or 40° C. (Table 6) by mixing Form 1 and Form 2 in various solvents in acetonitrile/water, acetone/water and methanol/water mixtures. […] (Table 5) or 40° C. (Table 6).

[2] = Storage stability of the polymorphs followed by XRD
Protocol: The top panel depicts the polymorph at initiation and the bottom three panels depict the polymorph after 24 months. FIG. 5 Panel A: initial control; FIG. 5 Panel B: sample stored for 2 years in open bottle in stability chambers at 25° C./60% relative humidity (RH); FIG. 5 Panel C: sample stored for 2 years in closed bottle in stability chambers at 40° C./75% RH; FIG. 5 Panel D: sample stored for 2 years in open bottle in stability chambers at 40° C./75% RH.
The top panel depicts the polymorph at initiation and the bottom panels depict the polymorph after 3, 6, 12 and 24 months.

[3] = Dynamic vapor sorption (hygroscopicity); conditions: DVS, 25° C., 0-90% relative humidity
Protocol: Dynamic vapor sorption (DVS) analysis was performed by measuring mass variation of the crystalline form of 4-[(7-methoxy-2,3-dihydro-1,4-benzothiazepin-4(5H)yl)methyl]benzoic acid hemifumarate as a function of relative humidity using a DVS intrinsic instrument. A 5 mg to 10 mg of a sample of a crystalline form of 4-[(7-methoxy-2,3-dihydro-1,4-benzothiazepin-4(5H)yl)methyl]benzoic acid, hemifumarate was placed into a sample pan of a DVS intrinsic instrument at 25° C. under controlled humidity. The mass variation was recorded as a function of relative humidity.
Measurement of DVS comprised: (a) equilibrating a sample of the crystalline form at 25° C. and 50% relative humidity in a temperature-controlled and humidity controlled chamber until mass variation is less than 0.002% per minute for 6 hours; (b) increasing the relative humidity from 50% to 90% at a rate of 10% per hour; (c) equilibrating the sample at 90% relative humidity until mass variation of less than 0.002% per minute for 6 hours is observed; (d) decreasing the relative humidity from 90% to 0% at a rate of 10% per hour; (e) equilibrating the sample at 0% relative humidity until mass variation of less than 0.002% per minute for 6 hours is observed; and (f) increasing the relative humidity from 0% to 50% at a rate of 10% per hour.

[4] = Thermogravimetric analysis (loss of mass before melting/degradation); conditions: 25° C. to 250° C. at about 10° C./minute
Protocol: Thermogravimetric analysis (TGA) was performed. A 10 to 20 mg of sample of a crystalline form of 4-[(7-methoxy-2,3-dihydro-1,4-benzothiazepin-4(5H)yl)methyl]benzoic acid hemifumarate was placed into an aluminum pan, with nitrogen purge. The sample was equilibrated at 25° C. in a temperature-controlled chamber. The sample was heated at a scan rate of about 10° C./minute to 250° C. under nitrogen purge. A TGA Q5000 thermogravimetric analysis instrument was used.

For COc1ccc2c(c1)CN(Cc1ccc(C(=O)O)cc1)CCS2.O=C(O)/C=C/C(=O)O [Form 1 and Form 2], the “XRD (form after competitive slurry)” value ([1]; 15° C. for 10 days, Acetone) was “Form 2”, the “XRD (form after competitive slurry)” value ([1]; 15° C. for 10 days, Acetone/water 30/70) was “Form 2” and the “XRD (form after competitive slurry)” value ([1]; 15° C. for 10 days, Acetone/water 90/10) was “Form 2”. For the same compound, the “XRD (form after competitive slurry)” value ([1]; 15° C. for 10 days, Acetone/water 96/4) was “Form 2”, the “XRD (form after competitive slurry)” value ([1]; 15° C. for 10 days, Acetone/water 98/2) was “Form 2” and the “XRD (form after competitive slurry)” value ([1]; 15° C. for 10 days, Acetonitrile) was “Acetonitrile solvate (Form 4)”. The “XRD (form after competitive slurry)” value ([1]; 15° C. for 10 days, Acetonitrile/water 15/85) was “Acetonitrile solvate (Form 4)”, the “XRD (form after competitive slurry)” value ([1]; 15° C. for 10 days, Acetonitrile/water 87/13) was “Acetonitrile solvate (Form 4)” and the “XRD (form after competitive slurry)” value ([1]; 15° C. for 10 days, Acetonitrile/water 94/6) was “Acetonitrile solvate (Form 4)”. For the same compound, the “XRD (form after competitive slurry)” value ([1]; 15° C. for 10 days, Acetonitrile/water 98/2) was “Acetonitrile solvate (Form 4)”, the “XRD (form after competitive slurry)” value ([1]; 15° C. for 10 days, Methanol) was “Methanol solvate (Form 3)” and the “XRD (form after competitive slurry)” value ([1]; 15° C. for 10 days, Methanol/water 20/80) was “Form 2 + Methanol solvate”. The “XRD (form after competitive slurry)” value ([1]; 15° C. for 10 days, Methanol/water 50/50) was “Methanol solvate (Form 3)”, the “XRD (form after competitive slurry)” value ([1]; 15° C. for 10 days, Methanol/water 70/30) was “Methanol solvate (Form 3)” and the “XRD (form after competitive slurry)” value ([1]; 15° C. for 10 days, Methanol/water 95/5) was “Methanol solvate (Form 3)”. For the same compound, the “XRD (form after competitive slurry)” value ([1]; 15° C. for 10 days, Water) was “Form 2”, the “XRD (form after competitive slurry)” value ([1]; 40° C. for 5 days, Acetone) was “Form 2” and the “XRD (form after competitive slurry)” value ([1]; 40° C. for 5 days, Acetone/water 30/70) was “Form 2”. The “XRD (form after competitive slurry)” value ([1]; 40° C. for 5 days, Acetone/water 90/10) was “Form 2”, the “XRD (form after competitive slurry)” value ([1]; 40° C. for 5 days, Acetone/water 96/4) was “Form 2” and the “XRD (form after competitive slurry)” value ([1]; 40° C. for 5 days, Acetone/water 98/2) was “Form 2”. The “XRD (form after competitive slurry)” value ([1]; 40° C. for 5 days, Acetonitrile) was “Acetonitrile solvate (Form 4)”, the “XRD (form after competitive slurry)” value ([1]; 40° C. for 5 days, Acetonitrile/water 15/85) was “Acetonitrile solvate (Form 4)” and the “XRD (form after competitive slurry)” value ([1]; 40° C. for 5 days, Acetonitrile/water 87/13) was “Acetonitrile solvate (Form 4)”. For the same compound, the “XRD (form after competitive slurry)” value ([1]; 40° C. for 5 days, Acetonitrile/water 94/6) was “Acetonitrile solvate (Form 4)”, the “XRD (form after competitive slurry)” value ([1]; 40° C. for 5 days, Acetonitrile/water 98/2) was “Acetonitrile solvate (Form 4)” and the “XRD (form after competitive slurry)” value ([1]; 40° C. for 5 days, Methanol) was “Methanol solvate (Form 3)”. For the same compound, the “XRD (form after competitive slurry)” value ([1]; 40° C. for 5 days, Methanol/water 20/80) was “Form 2 + Methanol solvate”, the “XRD (form after competitive slurry)” value ([1]; 40° C. for 5 days, Methanol/water 50/50) was “Methanol solvate (Form 3)” and the “XRD (form after competitive slurry)” value ([1]; 40° C. for 5 days, Methanol/water 70/30) was “Methanol solvate (Form 3)”. The “XRD (form after competitive slurry)” value ([1]; 40° C. for 5 days, Methanol/water 95/5) was “Methanol solvate (Form 3)”, the “XRD (form after competitive slurry)” value ([1]; 40° C. for 5 days, Water) was “Form 2” and the “Form obtained from slurry” value ([1]; acetone/water mixtures, all tested conditions) was “converted into Form 2”. For the same compound, the “Form obtained from slurry” value ([1]; acetonitrile/water mixtures, all tested ratios, 15° C. or 40° C.) was “converted into the acetonitrile solvate (Form 4)”, the “Form obtained from slurry” value ([1]; methanol/water (20/80 v/v)) was “a mixture of Form 2 and methanol solvate” and the “Form obtained from slurry” value ([1]; methanol/water mixtures, all tested ratios except 20/80 v/v, 15° C. or 40° C.) was “converted into the methanol solvate (Form 3)”.
For COc1ccc2c(c1)CN(Cc1ccc(C(=O)O)cc1)CCS2.O=C(O)/C=C/C(=O)O [Form 1, 4-[(7-methoxy-2,3-dihydro-1,4-benzothiazepin-4(5H)yl)methyl]benzoic acid, hemifumarate], the “Storage time without any detectable conversion into Form 2” value ([2]; XRD, FIG. 5) was “at least 24 months”, the “Stability of the polymorph on storage (XRD, FIG. 5)” value ([2]; after 24 months, open bottle 25° C./60% RH, closed bottle 40° C./75% RH, open bottle 40° C./75% RH) was “stable” and the Hygroscopicity [3] was “slightly hygroscopic; also recorded: non-hygroscopic”. The “Loss of mass before melting degradation (TGA)” value [4] was “about 1%”.
